Twelve compounds from ChEMBL document CHEMBL1201862, “PubChem BioAssay data set” (2004) can be followed below.

Holding throughout (experiment): growth of human tumour cells (NCI), 48 h
Assay [1] relates to 786-0.
In assay [2] the test system is A498.
The subject of assay [3] is BT-549.
The subject of assay [4] is COLO 205.
Assay [5] concerns HCT-116.
Assay [6] has as its system HOP-62.
The test system of assay [7] is HT-29.
The test system of assay [8] is Hs-578T.
The test system of assay [9] is MDA-MB-435.
Assay [10] relates to MOLT-4.
For assay [11], the system named is Malme-3M.
Assay [12] concerns NCI-H226.
Assay [13] deals with NCI-H460.
The subject of assay [14] is SF-295.
Assay [15] concerns SF-539.
In assay [16] the test system is SK-MEL-5.
For assay [17], the system named is SN12C.
In assay [18] the test system is SNB-75.
Assay [19] relates to LOX IMVI.

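48-hour exposure; five concentrations; linearly interpolated endpoints. GI50: concentration for 50% inhibition of growth.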 Active and inactive are the calls of the source. Rule as the data show it: active = GI50 up to about 1.1 µM and inactive = higher. Some results are limits rather than exact numbers.

Take `CCN(CC)Cc1cc(Nc2c3ccccc3nc3c4ccccc4n(C)c23)cc(CN(CC)CC)c1O`: the GI50 in [1] was 3.48 µM (inactive); in [2], 6.07 µM (inactive); in [3] it was 2 µM (inactive); in assay [4], 2.77 µM (inactive); in assay [5], 2.89 µM (inactive); in assay [6] it was 4.4 µM (inactive). Also, the GI50 was 3.41 µM (inactive) in [7]; 6.22 µM (inactive) in assay [8]; 3.01 µM (inactive) in assay [9]; 1.63 µM (inactive) in assay [10]; 2.74 µM (inactive) in assay [11]; 11.2 µM (inactive) in assay [12]. Besides, the GI50 was 3.89 µM (inactive) in assay [13]; 5.35 µM (inactive) in assay [14]; 3.18 µM (inactive) in [15]; 1.65 µM (inactive) in assay [16]; 6.61 µM (inactive) in assay [17]; 12 µM (inactive) in assay [18].
As for `CCCCNc1c(CN)cnc2cc(Cl)ccc12`, the GI50 in [1] was 16.7 µM (inactive); in assay [2], 15.4 µM (inactive); in [3], 16.6 µM (inactive); in assay [4], 7.48 µM (inactive); in assay [5], 15 µM (inactive); in [6], 14.1 µM (inactive). Moreover, the GI50 was 16.9 µM (inactive) in assay [7]; 17.6 µM (inactive) in assay [8]; 15.4 µM (inactive) in [19]; 15.6 µM (inactive) in assay [9]; 17 µM (inactive) in assay [10]; 19.2 µM (inactive) in [11]. The GI50 in [12] is 16.1 µM (inactive); in assay [13], 13 µM (inactive); in assay [14] it was 14 µM (inactive); in assay [16], 15.1 µM (inactive); in assay [17] it was 18.4 µM (inactive); in [18], 19.8 µM (inactive).
For `COc1cccc(-c2nnc3c(-c4ccccc4)nc4ccccc4n23)c1`, the GI50 is 49.1 µM (inactive) in assay [1]; 6.58 µM (inactive) in [2]; 35.9 µM (inactive) in assay [3]; 8.57 µM (inactive) in assay [4]; 19.7 µM (inactive) in [5]; 58.1 µM (inactive) in [6]. Further, the GI50 in assay [7] is 19.2 µM (inactive); in assay [8], 57.9 µM (inactive); in assay [19] it was 63.5 µM (inactive); in assay [9], 2.91 µM (inactive); in [10] it was 9.53 µM (inactive); in assay [11], 10.9 µM (inactive). Also, the GI50 in assay [12] is 57.3 µM (inactive); in assay [13], 10.3 µM (inactive); in [14], 35.6 µM (inactive); in assay [15], 65.8 µM (inactive); in assay [16] it was 14 µM (inactive); in [17], 73.1 µM (inactive).
For `COc1cc(Nc2c(C#N)[n+]([O-])c3ccccc3[n+]2[O-])cc(OC)c1OC`, the GI50 is 20 µM (inactive) in [1]; 48.3 µM (inactive) in assay [2]; 97.5 µM (inactive) in assay [3]; 12.6 µM (inactive) in assay [4]; 16.4 µM (inactive) in assay [5]; 29 µM (inactive) in assay [6]. In addition, the GI50 in assay [7] is 29.9 µM (inactive); in [8] it was > 100 µM (inactive); in [19], 26.7 µM (inactive); in [9], 37.4 µM (inactive); in [10], 42 µM (inactive); in assay [11], 35.2 µM (inactive). In addition, the GI50 was 35.2 µM (inactive) in assay [13]; 46.3 µM (inactive) in assay [14]; 33.6 µM (inactive) in assay [15]; 19.6 µM (inactive) in assay [16]; 35.8 µM (inactive) in assay [17]; > 100 µM (inactive) in assay [18].
For `Cc1nn(C(=O)c2ccc(Cl)cc2)c2c1C(c1ccccc1)SC(=N)N2` (configuration not stated), the GI50 in assay [1], in assay [3], in assay [4], in assay [5], in assay [6] and in assay [7] was > 10 µM (inactive) in each case. For the same compound, the GI50 in assay [8], in [19], in [9], in assay [10], in assay [11] and in [12] was > 10 µM (inactive) in each case. The GI50 in [13], in assay [14], in [15], in [16], in [17] and in assay [18] was > 10 µM (inactive) throughout.
On to `COCOc1cc(OC)ccc1C=O`, for which the GI50 was 36.6 µM (inactive) in [1]; 58.1 µM (inactive) in assay [3]; 24.9 µM (inactive) in assay [4]; 33.7 µM (inactive) in assay [5]; 72.3 µM (inactive) in assay [6]; 25.6 µM (inactive) in [7]. The GI50 is 14.8 µM (inactive) in assay [8]; 53 µM (inactive) in assay [19]; 8.39 µM (inactive) in [9]; 37.2 µM (inactive) in assay [10]; 11.6 µM (inactive) in assay [11]; 40.8 µM (inactive) in assay [12]. Moreover, the GI50 in assay [13] was 38.5 µM (inactive); in assay [14] it was 39 µM (inactive); in [15], 21.5 µM (inactive); in [16] it was 27.4 µM (inactive); in assay [17] it was 34.5 µM (inactive); in assay [18] it was 27.5 µM (inactive).
With `CC(=O)NC1(C)C(C)C2CC1C(C)C2(C)C` (configuration not stated), the GI50 in assay [1], in [2], in [3], in assay [4], in [5] and in assay [6] was > 100 µM (inactive) throughout. Moreover, the GI50 in assay [7], in [8], in assay [9], in assay [10], in assay [11] and in [12] was > 100 µM (inactive) throughout. In addition, the GI50 in assay [13], in assay [14], in [15], in assay [16], in [17] and in [18] was > 100 µM (inactive) each time.
For the compound `CC1C2CCC3C(O)C2(CC(O)C2(O)C1CC(O)C2(C)C)CC3(C)O` (configuration not stated), the GI50 in [1], in [2], in assay [3], in assay [4], in [5] and in assay [7] was > 100 µM (inactive) in each case. Moreover, the GI50 in assay [8] was > 100 µM (inactive); in assay [19] it was > 100 µM (inactive); in [9] it was > 100 µM (inactive); in [10], > 10 µM (inactive); in [11], > 100 µM (inactive); in assay [12], > 100 µM (inactive). The GI50 in assay [13], in assay [14], in assay [15], in assay [16] and in assay [17] was > 100 µM (inactive) each time.
In the case of `CCOc1cn(C2CC(O)C(CO)O2)c(=O)[nH]c1=O` (configuration not stated), the GI50 in assay [1] was > 100 µM (inactive); in assay [2], 45.8 µM (inactive); in assay [3], > 100 µM (inactive); in [4], > 100 µM (inactive); in assay [5], > 100 µM (inactive); in assay [6], > 100 µM (inactive). The GI50 in assay [7], in [8], in assay [19], in assay [9], in assay [10] and in assay [11] was > 100 µM (inactive) each time. For the same compound, the GI50 in assay [12], in assay [13], in assay [16], in assay [17] and in [18] was > 100 µM (inactive) each time.
Turning to `C/C=C\C(CC(=O)NCCC1CN(C(=O)OCc2ccccc2)c2ccccc21)CC(=O)OC` (configuration not stated), the GI50 was > 100 µM (inactive) in [1]; > 100 µM (inactive) in assay [2]; > 100 µM (inactive) in assay [3]; 50.5 µM (inactive) in [4]; > 100 µM (inactive) in [5]; > 100 µM (inactive) in [6]. The GI50 in assay [7] is > 100 µM (inactive); in assay [8] it was > 100 µM (inactive); in assay [9], > 100 µM (inactive); in assay [10], > 100 µM (inactive); in [11], > 100 µM (inactive); in assay [13] it was 86.5 µM (inactive). Further, the GI50 in assay [14], in assay [16] and in [18] was > 100 µM (inactive) each time.
Regarding `Cc1cc(-c2[nH]c(C(=O)O)cc2I)on1`, the GI50 in [1] is 36.6 µM (inactive); in assay [2], > 100 µM (inactive); in assay [3], 66.1 µM (inactive); in assay [4], > 100 µM (inactive); in assay [5], 42 µM (inactive); in assay [6], 26.9 µM (inactive). Moreover, the GI50 in [7] is > 100 µM (inactive); in [8], 67.9 µM (inactive); in [9], > 100 µM (inactive); in assay [10], > 100 µM (inactive); in assay [11], > 100 µM (inactive); in assay [13] it was > 100 µM (inactive). Moreover, the GI50 in assay [14] was 33.7 µM (inactive); in assay [16], > 100 µM (inactive); in assay [18], 24.8 µM (inactive).
In the case of `Cc1cccc2c(N)c3cccc(C(=O)NCCN(C)C)c3nc12`, the GI50 was < 0.0199 µM (active) in [1]; 0.157 µM (active) in assay [2]; 1.41 µM (inactive) in assay [3]; 0.0315 µM (active) in [4]; 0.0236 µM (active) in assay [5]; < 0.0247 µM (active) in assay [6]. For the same compound, the GI50 was < 0.0236 µM (active) in [7]; 0.207 µM (active) in assay [8]; < 0.033 µM (active) in assay [19]; 0.12 µM (active) in assay [9]; < 0.01 µM (active) in assay [10]; 0.173 µM (active) in assay [11]. In addition, the GI50 was < 0.01 µM (active) in [13]; < 0.0298 µM (active) in [14]; 0.114 µM (active) in [16]; < 0.0167 µM (active) in assay [17]; 0.074 µM (active) in [18].
